Biological target: human σ1 receptor (Homo sapiens, UniProt Q99720)
Assay: Human σ1 receptor radioligand assay ([3H](+)-pentazocine, transfected HEK-293 membranes)
Format: binding
Design: μ and σ1 dual binding: key to the marks not given beside the values
Settings: one class symbol for both Ki-σ1 (human σ1 receptor, A1) and Ki-μ (human μ-opioid receptor, A2)
Experimental: Human σ1 Receptor Radioligand Assay
To investigate binding properties of test compounds to human σ1 receptor, transfected HEK-293 membranes and [^3H](+)-pentazocine (Perkin Elmer, NET-1056), as the radioligand, were used. The assay was carried out with 7 μg of membrane suspension, 5 nM of [^3H](+)-pentazocine in either absence or presence of either buffer or 10 μM Haloperidol for total and non-specific binding, respectively. Binding buffer contained Tris-HCl 50 mM at pH 8. Plates were incubated at 37° C. for 120 minutes. After the incubation period, the reaction mix was then transferred to MultiScreen HTS, FC plates (Millipore), filtered and plates were washed 3 times with ice-cold 10 mM Tris-HCL (pH7.4). Filters were dried and counted at approximately 40% efficiency in a MicroBeta scintillation counter (Perkin-Elmer) using EcoScint liquid scintillation cocktail

Sequence of human σ1 receptor (Q99720 whole entry): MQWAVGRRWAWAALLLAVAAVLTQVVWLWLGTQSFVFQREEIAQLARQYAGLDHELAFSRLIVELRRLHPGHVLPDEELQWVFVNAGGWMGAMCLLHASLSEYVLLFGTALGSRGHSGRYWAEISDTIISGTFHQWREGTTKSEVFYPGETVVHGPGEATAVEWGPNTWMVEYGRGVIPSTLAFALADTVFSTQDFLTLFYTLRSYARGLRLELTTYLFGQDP

Row | Compound | μ and σ1 dual binding
1 | CCC1(C2CCN(Cc3ccccc3)CC2)CCOC(C)(C)C1 (stereo not shown) [Example 167, 1-Benzyl-4-(4-ethyl-2,2-dimethyltetrahydro-2H-pyran-4-yl)piperidine] | ++
2 | CC[C@@]1(N2CCN(CCc3ccccc3)CC2)CCO[C@@H](C)C1 (stereo in doubt) [Example 47, 1-(4-ethyl-2-methyltetrahydro-2H-pyran-4-yl)-4-phenethylpiperazine] | ++
3 | C[C@@H]1C[C@](C(=O)c2ccccn2)(N2CCN(CCc3ccccc3)CC2)CCO1 [Example 240, ((2R,4R)-2-methyl-4-(4-phenethylpiperazin-1-yl)tetrahydro-2H-pyran-4-yl)(pyridin-2-yl)methanone] | ++
4 | CC1(C)CC(C(=O)c2ccccn2)(N2CCN(CCc3ncccc3F)CC2)CCO1 (stereo not shown) [Example 55, (4-(4-(2-(3-fluoropyridin-2-yl)ethyl)piperazin-1-yl)-2,2-dimethyltetrahydro-2H-pyran-4-yl)(pyridin-2-yl)methanone] | ++
5 | CC(C)OCCN1CCN([C@@]2(C(=O)c3ccccn3)CCOC2)CC1 [Example 243, (S)-(3-(4-(2-isopropoxyethyl)piperazin-1-yl)tetrahydrofuran-3-yl)(pyridin-2-yl)methanone] | ++
6 | CCC1(N2CCN(CCc3ccncc3F)CC2)CCOC(C)(C)C1 (stereo not shown) [Example 84, 1-(4-ethyl-2,2-dimethyltetrahydro-2H-pyran-4-yl)-4-(2-(3-fluoropyridin-4-yl)ethyl)piperazine] | ++
7 | CC(C)CCN1CCN(C2(C(=O)c3ccccn3)CCOCC2)CC1 [Example 177, (4-(4-isopentylpiperazin-1-yl)tetrahydro-2H-pyran-4-yl)(pyridin-2-yl)methanone] | ++
8 | CC[C@]1(N2CCN(CCc3ccccc3)CC2)CCO[C@@H](C)C1 (stereo in doubt) [Example 46, 1-(4-ethyl-2-methyltetrahydro-2H-pyran-4-yl)-4-phenethylpiperazine] | ++
9 | CCC1(N2CCN(CCc3cccnc3)CC2)CCOC(C)(C)C1 (stereo not shown) [Example 83, 1-(4-ethyl-2,2-dimethyltetrahydro-2H-pyran-4-yl)-4-(2-(pyridin-3-yl)ethyl)piperazine] | ++
10 | CC(c1ccc(F)cc1)N1CCN(C2(C(=O)c3ccccn3)CCOC(C)(C)C2)CC1 (stereo not shown) [Example 63, (4-(4-(1-(4-fluorophenyl)ethyl)piperazin-1-yl)-2,2-dimethyltetrahydro-2H-pyran-4-yl)(pyridin-2-yl)methanone] | ++
11 | CCC1(N2CCN(CCc3ccccn3)CC2)CCOC(C)(C)C1 (stereo not shown) [Example 87, 1-(4-ethyl-2,2-dimethyltetrahydro-2H-pyran-4-yl)-4-(2-(pyridin-2-yl)ethyl)piperazine] | ++
12 | CC1(C)CC(C(=O)c2ccccn2)(N2CCN(Cc3ccccc3)CC2)CC(C)(C)O1 [Example 17, (4-(4-benzylpiperazin-1-yl)-2,2,6,6-tetramethyltetrahydro-2H-pyran-4-yl)(pyridin-2-yl)methanone] | ++
13 | CC(C)OCCN(C)[C@H]1CCN([C@@]2(C(=O)c3ccccn3)CCOC(C)(C)C2)C1 [Example 147, ((S)-4-((S)-3-((2-isopropoxyethyl)(methyl)amino)pyrrolidin-1-yl)-2,2-dimethyltetrahydro-2H-pyran-4-yl)(pyridin-2-yl)methanone] | ++
14 | CC(C)OCCN1CCN(C2(C(=O)c3ccccn3)CCOCC2)CC1 [Example 185, (4-(4-(2-isopropoxyethyl)piperazin-1-yl)tetrahydro-2H-pyran-4-yl)(pyridin-2-yl)methanone] | ++
15 | CC(C)OCCN1CCN([C@@]2(C(=O)c3ccccn3)CCOC(C)(C)C2)CC1 [Example 134, (S)-(4-(4-(2-isopropoxyethyl)piperazin-1-yl)-2,2-dimethyltetrahydro-2H-pyran-4-yl)(pyridin-2-yl)methanone] | ++
16 | CC(C)C1(N2CCN(CCc3cccc(F)c3F)CC2)CCOC(C)(C)C1 (stereo not shown) [Example 101, 1-(2,3-difluorophenethyl)-4-(4-isopropyl-2,2-dimethyltetrahydro-2H-pyran-4-yl)piperazine] | ++
17 | CC(C)OCCN1CCN(C2(C(=O)c3ccccn3)CC(C)(C)OC(C)(C)C2)CC1 [Example 72, (4-(4-(2-isopropoxyethyl)piperazin-1-yl)-2,2,6,6-tetramethyltetrahydro-2H-pyran-4-yl)(pyridin-2-yl)methanone] | ++
18 | CC[C@@]1(N2CCN(Cc3ccc(C#N)cc3)CC2)CCO[C@@H](C)C1 (stereo in doubt) [Example 186, 4-((4-(4-ethyl-2-methyltetrahydro-2H-pyran-4-yl)piperazin-1-yl)methyl)benzonitrile] | ++

Same assay, conditions: one class symbol for both Ki-σ1 (human σ1 receptor, A1) and Ki-μ (human μ-opioid receptor, A2); read-out: μ and σ1 dual binding

Row | Ki [nM] | Compound
19 | > 500 | COc1ccc(CN2CCN(C3(C(=O)c4ccccn4)CCOCC3)CC2)cc1F [Example 196, (4-(4-(3-fluoro-4-methoxybenzyl)piperazin-1-yl)tetrahydro-2H-pyran-4-yl)(pyridin-2-yl)methanone]
20 | > 500 | N#Cc1cccc(CN2CCN(C3(C(=O)c4ccccn4)CCOCC3)CC2)c1 [Example 193, 3-((4-(4-picolinoyltetrahydro-2H-pyran-4-yl)piperazin-1-yl)methyl)benzonitrile]
21 | > 500 | O=C(c1ccccn1)C1(N2CCN(Cc3ccc(F)c(F)c3)CC2)CCOCC1 [Example 197, (4-(4-(3,4-difluorobenzyl)piperazin-1-yl)tetrahydro-2H-pyran-4-yl)(pyridin-2-yl)methanone]
22 | > 500 | CCC1(C2CCN(Cc3ccccc3)CC2)CCOCC1 [Example 166, 1-benzyl-4-(4-ethyltetrahydro-2H-pyran-4-yl)piperidine]
23 | > 500 | CCOCCCN1CCC(C2(C(=O)c3ccccn3)CCOC(C)(C)C2)CC1 (stereo not shown) [Example 103]

Row | Compound | Ki [nM]
24 | CC(C)OCCN1CCC(C2(C(=O)c3ccccn3)CCOC(C)(C)C2)CC1 (stereo not shown) [Example 77, (4-(1-(2-isopropoxyethyl)piperidin-4-yl)-2,2-dimethyltetrahydro-2H-pyran-4-yl)(pyridin-2-yl)methanone] | < 500
25 | COCCN1CCN(C2(C(=O)c3ccccn3)CCOC(C)(C)C2)CC1 (stereo not shown) [Example 68, (4-(4-(2-methoxyethyl)piperazin-1-yl)-2,2-dimethyltetrahydro-2H-pyran-4-yl)(pyridin-2-yl)methanone] | > 500
26 | C[C@@H]1C[C@@](C(=O)c2ccccn2)(N2CCN(Cc3ccccc3)CC2)CCO1 [Example 25] | > 500
27 | CC(C)CCN1CCN([C@]2(C(=O)c3ccccn3)CCO[C@H](C)C2)CC1 [Example 246, ((2R,4R)-4-(4-isopentylpiperazin-1-yl)-2-methyltetrahydro-2H-pyran-4-yl)(pyridin-2-yl)methanone] | < 500

Same assay, conditions: μ and σ1 dual binding, one class symbol for both Ki-σ1 (human σ1 receptor, A1) and Ki-μ (human μ-opioid receptor, A2)

Row | Compound | Ki [nM]
28 | CC1(C)CC(C(=O)c2ccccn2)(N2CCN(CCc3ccncc3Cl)CC2)CCO1 (stereo not shown) [Example 57, (4-(4-(2-(3-chloropyridin-4-yl)ethyl)piperazin-1-yl)-2,2-dimethyltetrahydro-2H-pyran-4-yl)(pyridin-2-yl)methanone] | < 500
29 | CC1(C)CC(C(=O)c2ccccn2)(N2CCCN(Cc3ccccc3)CC2)CCO1 (stereo not shown) [Example 24, (4-(4-benzyl-1,4-diazepan-1-yl)-2,2-dimethyltetrahydro-2H-pyran-4-yl)(pyridin-2-yl)methanone] | < 500
30 | CC1(C)CC(C2CC2)(N2CCN(CCc3ccccc3)CC2)CCO1 (stereo not shown) [Example 44, 1-(4-cyclopropyl-2,2-dimethyltetrahydro-2H-pyran-4-yl)-4-phenethylpiperazine] | < 500
31 | CC(C)OCCN1CCCN(C2(C(=O)c3ccccn3)CCOC(C)(C)C2)CC1 (stereo not shown) [Example 88, (4-(4-(2-isopropoxyethyl)-1,4-diazepan-1-yl)-2,2-dimethyltetrahydro-2H-pyran-4-yl)(pyridin-2-yl)methanone] | < 500
32 | CC1(C)C[C@](C(=O)c2ccccn2)(N2CCN(Cc3ccccc3)CC2)CCO1 [Example 3, (R)-(4-(4-benzylpiperazin-1-yl)-2,2-dimethyltetrahydro-2H-pyran-4-yl)(pyridin-2-yl)methanone] | < 100
33 | CCC1(N2CCN(CCc3ccccc3F)CC2)CCOC(C)(C)C1 (stereo not shown) [Example 94, 1-(4-ethyl-2,2-dimethyltetrahydro-2H-pyran-4-yl)-4-(2-fluorophenethyl)piperazine] | < 500
34 | CC1(C)CC(C(=O)c2cccc(C(F)(F)F)n2)(N2CCN(Cc3ccccc3)CC2)CCO1 (stereo not shown) [Example 15, (4-(4-benzylpiperazin-1-yl)-2,2-dimethyltetrahydro-2H-pyran-4-yl)(6-(trifluoromethyl)pyridin-2-yl)methanone] | < 100
35 | CC(C)(F)COCCN1CCN(C2(C(=O)c3ccccn3)CCOC(C)(C)C2)CC1 (stereo not shown) [Example 116, (4-(4-(2-(2-fluoro-2-methylpropoxy)ethyl)piperazin-1-yl)-2,2-dimethyltetrahydro-2H-pyran-4-yl)(pyridin-2-yl)methanone] | < 500
36 | CC(C)CCN1CCN(C2(C(=O)c3ccccc3)CCOC(C)(C)C2)CC1 (stereo not shown) [Example 12, (4-(4-isopentylpiperazin-1-yl)-2,2-dimethyltetrahydro-2H-pyran-4-yl)(phenyl)methanone] | < 500
37 | CCCC1(N2CCN(CCc3ccccc3)CC2)CCOC(C)(C)C1 (stereo not shown) [Example 41, 1-(2,2-dimethyl-4-propyltetrahydro-2H-pyran-4-yl)-4-phenethylpiperazine] | < 500

From US10807970B2 (priority 2016, dated 2020)
